Assays:
Assay type in all cases: cell-based, Human
laminin = assay: Laminin secretion amount (ELISA) of tunicamycin-treated epidermal keratinocytes; conditions: HaCaT, tunicamycin 0.1 µg/mL, 50 µg/mL to 200 µg/mL, 24 hours; recovery increased as content increased; Fig. 7
Protocol: Human normal epidermal keratinocytes (HaCaT) were cultured using DMEM containing 10% FBS. The cultured cells were collected by trypsin treatment. The collected cells were seeded in a 24-well plate, and when they reached 100% confluence, tunicamycin was added at 0.1 µg/mL, and after 24 hours, the culture supernatant was collected. A group was also prepared in which FBS-free DMEM medium containing a test sample (2'-fucosyllactose) at 50 µg/mL, 100 µg/mL, or 200 µg/mL was added simultaneously with tunicamycin, and after 24 hours, the culture supernatant was collected. The culture supernatant was centrifuged, and the resulting supernatant was used as a sample. […] This total cell protein concentration was measured by the Bradford assay.
Human normal epidermal keratinocytes were cultured and the culture supernatant was collected in the same manner as in Example 6-1, except that tunicamycin and the test sample were not added. […] This total cell protein concentration was measured by the Bradford assay.
An Enzyme-Linked Immunosorbent Assay (ELISA) method was performed using an antibody against laminin to measure the amount of laminin in the sample. […] After stopping the reaction, the absorbance at a measurement wavelength of 450 nm was measured with a microplate reader. […]

IL-1α = IL-1α expression analysis (ELISA) under H2O2; conditions: HaCaT, 20 µM H2O2, 50 µg/mL to 200 µg/mL, 24 hours; suppression increased as content increased; Fig. 10
Protocol: Human normal epidermal keratinocytes (HaCaT) were cultured in DMEM containing 10% FBS. The cultured cells were collected by trypsin treatment. The collected cells were seeded in a 48-well plate at a cell density of 6 x 10^4 cells/well and cultured for 24 hours in a 37°C, 5% CO2 incubator. After culturing, the cells were precultured for 2 hours in FBS-free DMEM containing the test sample (2'-FL and sucrose) at 50 µg/mL, 100 µg/mL, or 200 µg/mL, or in FBS-free DMEM not containing the test sample. Thereafter, the medium was replaced with FBS-free DMEM containing the test sample at 50 µg/mL, 100 µg/mL, or 200 µg/mL and 20 µM H2O2, or with FBS-free DMEM not containing the test sample but containing 20 µM H2O2, respectively, and after culturing for an additional 24 hours in a 37°C, 5% CO2 incubator, the culture supernatant was collected. The culture supernatant was centrifuged, and the resulting supernatant was used as a sample. […]
Since most IL-1α is released extracellularly, the IL-1α expression level was evaluated by measuring IL-1α in the supernatant medium by ELISA (AuthentiKine™ IL-1 alpha ELISA Kit, manufactured by Proteintech). […] The relative value of the IL-1α amount when each test sample was added was calculated, with the IL-1α amount in the control set to 1.

type I collagen = assay: Type I collagen expression analysis (ELISA); conditions: at a concentration of at least 100 µg/mL or more, 48 hours; effect increased from 100 µg/mL to 200 µg/mL; Fig. 9
Protocol: Human normal dermal fibroblasts (NB1RGB) with a PDL of 30 or less were cultured in DMEM (Dulbecco's Modified Eagle Medium, manufactured by Nissui Pharmaceutical Co., Ltd.) containing 10% FBS. The cultured cells were collected by trypsin treatment. The collected cells were seeded in a 96-well plate, and when they reached 100% confluence, FBS-free DMEM containing the test sample (2'-FL and sucrose) at 50 µg/mL, 100 µg/mL, or 200 µg/mL was added, and after culturing for 48 hours in a 37°C, 5% CO2 incubator, the culture supernatant was collected. The culture supernatant was centrifuged, and the resulting supernatant was used as a sample.
The culture supernatant was collected and used as a sample in the same manner as in [Example 8-1], except that FBS-free DMEM not containing the test sample was used instead of FBS-free DMEM containing the test sample.
An Enzyme-Linked Immunosorbent Assay (ELISA) method was performed using an antibody against type I collagen to measure the amount of type I collagen in the samples. […] After stopping the reaction, the absorbance at a measurement wavelength of 450 nm was measured using a microplate reader. […] The relative value of the type I collagen amount when each test sample was added was calculated, with the type I collagen amount in the control set to 1.

C[C@@H]1O[C@@H](O[C@H]2[C@H](O[C@H]3[C@H](O)[C@@H](O)C(O)O[C@@H]3CO)O[C@H](CO)[C@H](O)[C@@H]2O)[C@@H](O)[C@H](O)[C@@H]1O (stereo partly drawn) [2'-FL, 2'-fucosyllactose]
laminin secretion (laminin): restored laminin secretion | H2O2-induced promotion of IL-1α expression (IL-1α): suppressed the H2O2-induced promotion of IL-1 α expression | expression level of type I collagen (type I collagen): increased the expression level of type I collagen
